Test results: patent US6737383B1, “Herbicidal oxadiazolidines” (priority 1999, dated 2004)

What was measured:
purple nutsedge = experiment: Test B pre/postemergence purple nutsedge; format: in vivo, Cyperus rotundus
In short: (§1)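 Response is a visual 0-to-10 score relative to untreated plants, where 0 means no effect and 10 means complete control, taken twelve to sixteen days after application. Treatments went onto soil at planting and onto foliage of 1- to 4-leaf plants, using a surfactant-containing non-phytotoxic solvent.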

crabgrass = experiment: Test B pre/postemergence crabgrass; format: in vivo, Digitaria sanguinalis
In short: as §1

pigweed = experiment: Test B pre/postemergence pigweed; format: in vivo, Amaranthus retroflexus
In short: as §1

blackgrass = experiment: Test B pre/postemergence blackgrass; format: in vivo, Alopecurus myosuroides
In short: as §1

wheat = experiment: Test B pre/postemergence wheat; format: in vivo, Triticum aestivum
In short: as §1

bedstraw = experiment: Test B pre/postemergence bedstraw; format: in vivo, Galium aparine
In short: as §1

wild oat = experiment: Test B pre/postemergence wild oat; format: in vivo, Avena fatua
In short: as §1

giant foxtail = experiment: Test B pre/postemergence giant foxtail; format: in vivo, Setaria faberii
In short: as §1

sugar beet = experiment: Test B pre/postemergence sugar beet; format: in vivo, Beta vulgaris
In short: as §1

surinam grass = experiment: Test B pre/postemergence surinam grass; format: in vivo, Brachiaria decumbens
In short: as §1

cocklebur = experiment: Test B pre/postemergence cocklebur; format: in vivo, Xanthium strumarium
In short: as §1

velvetleaf = experiment: Test B pre/postemergence velvetleaf; format: in vivo, Abutilon theophrasti
In short: as §1

rape = experiment: Test B pre/postemergence rape; format: in vivo, Brassica napus
In short: as §1

morningglory = experiment: Test B pre/postemergence morningglory; format: in vivo, Ipomoea hederacea
In short: as §1

corn = experiment: Test B pre/postemergence corn; format: in vivo, Zea mays
In short: as §1

soybean = experiment: Test B pre/postemergence soybean; format: in vivo, Glycine max
In short: as §1

[1] = Postemergence, Rate 62 g/ha, scale of 0 to 10, 0 is no effect, 10 is complete control
[2] = Postemergence, Rate 125 g/ha, scale 0 to 10, 0 is no effect, 10 is complete control
[3] = Postemergence, Rate 500 g/ha, scale 0 to 10, 0 is no effect, 10 is complete control
[4] = Preemergence, Rate 62 g/ha, scale 0 to 10 (0 no effect, 10 complete control)
[5] = Preemergence, Rate 125 g/ha, scale 0 to 10, 0 is no effect, 10 is complete control
[6] = Preemergence, Rate 500 g/ha, scale of 0 to 10 where 0 is no effect and 10 is complete control
[7] = Rate 250 g/ha, Postemergence, scale of 0 to 10 where 0 is no effect and 10 is complete control

CC(=O)OCCCCn1c(=O)on(C(=O)N(c2ccc(Cl)cc2)C(C)C)c1=O [Compound 536]
Nutsedge plant response rating (purple nutsedge; [1]): 0 | Nutsedge plant response rating (purple nutsedge; [2]): 0 | Plant response rating, Nutsedge (purple nutsedge; [3]): 0 | Nutsedge plant response rating (purple nutsedge; [4]): 0 | Nutsedge plant response rating (purple nutsedge; [5]): 0 | Nutsedge plant response rating (0 to 10 scale) (purple nutsedge; Preemergence, Rate 250 g/ha): 0 | Nutsedge plant response rating (purple nutsedge; [6]): 0 | Plant response rating, Nutsedge (purple nutsedge; [7]): 0 | Crabgrass plant response rating (crabgrass; [1]): 0 | Crabgrass plant response rating (crabgrass; [2]): 5 | Plant response rating, Crabgrass (crabgrass; [3]): 3 | Crabgrass plant response rating (crabgrass; [4]): 0 | Crabgrass plant response rating (crabgrass; [5]): 0 | Crabgrass plant response rating (0 to 10 scale) (crabgrass; Preemergence, Rate 250 g/ha): 0 | Crabgrass plant response rating (crabgrass; [6]): 2 | Plant response rating, Crabgrass (crabgrass; [7]): 5 | Redroot pigweed plant response rating (pigweed; [1]): 0 | Redroot pigweed plant response rating (pigweed; [2]): 0 | Plant response rating, Redroot pigweed (pigweed; [3]): 8 | Redroot pigweed plant response rating (pigweed; [4]): 0 | Redroot pigweed plant response rating (pigweed; [5]): 0 | Redroot pigweed plant response rating (0 to 10 scale) (pigweed; Preemergence, Rate 250 g/ha): 0 | Redroot pigweed plant response rating (pigweed; [6]): 0 | Plant response rating, Redroot pigweed (pigweed; [7]): 0 | Blackgrass plant response rating (blackgrass; [1]): 0 | Blackgrass plant response rating (blackgrass; [2]): 0 | Plant response rating, Blackgrass (blackgrass; [3]): 0 | Blackgrass plant response rating (blackgrass; [4]): 0 | Blackgrass plant response rating (blackgrass; [5]): 0 | Blackgrass plant response rating (0 to 10 scale) (blackgrass; Preemergence, Rate 250 g/ha): 0 | Blackgrass plant response rating (blackgrass; [6]): 0 | Plant response rating, Blackgrass (blackgrass; [7]): 0 | Wheat plant response rating (wheat; [1]): 0 | Wheat plant response rating (wheat; [2]): 0 | Plant response rating, Wheat (wheat; [3]): 0 | Wheat plant response rating (wheat; [4]): 0 | Wheat plant response rating (wheat; [5]): 0 | Wheat plant response rating (0 to 10 scale) (wheat; Preemergence, Rate 250 g/ha): 0 | Wheat plant response rating (wheat; [6]): 0 | Plant response rating, Wheat (wheat; [7]): 0 | Bedstraw plant response rating (bedstraw; [2]): 0 | Bedstraw plant response rating (bedstraw; [4]): 0 | Bedstraw plant response rating (bedstraw; [5]): 0 | Bedstraw plant response rating (0 to 10 scale) (bedstraw; Preemergence, Rate 250 g/ha): 0 | Bedstraw plant response rating (bedstraw; [6]): 0 | Plant response rating, Bedstraw (bedstraw; [7]): 0 | Wild oats plant response rating (wild oat; [1]): 0 | Wild oats plant response rating (wild oat; [2]): 0 | Plant response rating, Wild oats (wild oat; [3]): 0 | Wild oats plant response rating (wild oat; [4]): 0 | Wild oats plant response rating (wild oat; [5]): 0 | Wild oats plant response rating (0 to 10 scale) (wild oat; Preemergence, Rate 250 g/ha): 0 | Wild oats plant response rating (wild oat; [6]): 0 | Plant response rating, Wild oats (wild oat; [7]): 0 | Giant foxtail plant response rating (giant foxtail; [1]): 0 | Giant foxtail plant response rating (giant foxtail; [2]): 0 | Plant response rating, Giant foxtail (giant foxtail; [3]): 0 | Giant foxtail plant response rating (giant foxtail; [4]): 7 | Giant foxtail plant response rating (giant foxtail; [5]): 9 | Giant foxtail plant response rating (0 to 10 scale) (giant foxtail; Preemergence, Rate 250 g/ha): 10 | Giant foxtail plant response rating (giant foxtail; [6]): 10 | Plant response rating, Giant foxtail (giant foxtail; [7]): 0 | Sugarbeets plant response rating (sugar beet; [1]): 0 | Sugarbeets plant response rating (sugar beet; [2]): 0 | Plant response rating, Sugarbeets (sugar beet; [3]): 0 | Sugarbeets plant response rating (sugar beet; [4]): 0 | Sugarbeets plant response rating (sugar beet; [5]): 0 | Sugarbeets plant response rating (0 to 10 scale) (sugar beet; Preemergence, Rate 250 g/ha): 2 | Sugarbeets plant response rating (sugar beet; [6]): 3 | Plant response rating, Sugarbeets (sugar beet; [7]): 0 | B. signalgrass plant response rating (surinam grass; [1]): 0 | B. signalgrass plant response rating (surinam grass; [2]): 0 | Plant response rating, B. signalgrass (surinam grass; [3]): 0 | B. signalgrass plant response rating (surinam grass; [4]): 0 | B. signalgrass plant response rating (surinam grass; [5]): 0 | B. signalgrass plant response rating (0 to 10 scale, 0 is no effect, 10 is complete control) (surinam grass; Preemergence, Rate 250 g/ha): 0 | B. signalgrass plant response rating (surinam grass; [6]): 0 | Plant response rating, B. signalgrass (surinam grass; [7]): 0 | Cocklebur plant response rating (cocklebur; [1]): 0 | Cocklebur plant response rating (cocklebur; [2]): 0 | Plant response rating, Cocklebur (cocklebur; [3]): 0 | Cocklebur plant response rating (cocklebur; [4]): 0 | Cocklebur plant response rating (cocklebur; [5]): 0 | Cocklebur plant response rating (0 to 10 scale) (cocklebur; Preemergence, Rate 250 g/ha): 0 | Cocklebur plant response rating (cocklebur; [6]): 0 | Plant response rating, Cocklebur (cocklebur; [7]): 0 | Velvetleaf plant response rating (velvetleaf; [1]): 0 | Velvetleaf plant response rating (velvetleaf; [2]): 0 | Plant response rating, Velvetleaf (velvetleaf; [3]): 0 | Velvetleaf plant response rating (velvetleaf; [4]): 0 | Velvetleaf plant response rating (velvetleaf; [5]): 0 | Velvetleaf plant response rating (0 to 10 scale) (velvetleaf; Preemergence, Rate 250 g/ha): 0 | Velvetleaf plant response rating (velvetleaf; [6]): 0 | Plant response rating, Velvetleaf (velvetleaf; [7]): 0 | Rape plant response rating (rape; [1]): 0 | Rape plant response rating (rape; [2]): 0 | Plant response rating, Rape (rape; [3]): 0 | Rape plant response rating (rape; [4]): 0 | Rape plant response rating (rape; [5]): 0 | Rape plant response rating (0 to 10 scale) (rape; Preemergence, Rate 250 g/ha): 0 | Rape plant response rating (rape; [6]): 0 | Plant response rating, Rape (rape; [7]): 0 | Morningglory plant response rating (morningglory; [1]): 2 | Morningglory plant response rating (morningglory; [2]): 2 | Plant response rating, Morningglory (morningglory; [3]): 2 | Morningglory plant response rating (morningglory; [4]): 0 | Morningglory plant response rating (morningglory; [5]): 0 | Plant response rating, Morningglory (morningglory; [7]): 2 | Corn plant response rating (corn; [1]): 0 | Corn plant response rating (corn; [2]): 0 | Plant response rating, Corn (corn; [3]): 0 | Corn plant response rating (corn; [4]): 0 | Corn plant response rating (corn; [5]): 0 | Corn plant response rating (0 to 10 scale) (corn; Preemergence, Rate 250 g/ha): 0 | Corn plant response rating (corn; [6]): 0 | Plant response rating, Corn (corn; [7]): 0 | Soybean plant response rating (soybean; [1]): 2 | Soybean plant response rating (soybean; [2]): 4 | Plant response rating, Soybean (soybean; [3]): 6 | Soybean plant response rating (soybean; [4]): 0 | Soybean plant response rating (soybean; [5]): 0 | Soybean plant response rating (0 to 10 scale) (soybean; Preemergence, Rate 250 g/ha): 0 | Soybean plant response rating (soybean; [6]): 0 | Plant response rating, Soybean (soybean; [7]): 4
